Assay results published in US11559538B2, “Substituted 1,2-oxaborolan-2-ols as PDE4 inhibitors” (Pfizer Inc., priority 2018, dated 2023).
Like-named read-outs stand apart in the source and are kept apart here.

Columns and labels:
[1] = target: PDE4B (aa 152-484, Uniprot ID Q07343) (Homo sapiens (Human), UniProt Q07343); assay: PDE4 SPA assay (scintillation proximity assay); assay type: biochemical; details: read-out: PDE4B2 IC50
How it was run: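 PDE4B (aa 152-484, ~81.6 pM) preincubated ~10 min with compound, then 1 μM ³H/unlabeled cAMP added in Tris pH 7.5, 1.3 mM MgCl2, 0.004% Brij 35, ~2% DMSO; 30 min at RT. Product captured on SPA beads and counted; IC50 by four-parameter logistic fit.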

[2] = test system: IL-4; assay: Cytokine assay: IL-4 release from PHA-L stimulated human PBMCs; assay type: cell-based; details: read-out: IL4 IC50
How it was run: (§1)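 Thawed cryopreserved human PBMCs (~250,000 cells/well) in RPMI 1640 with 10% heat-inactivated FBS were treated with compound for ~10 min at room temperature, then stimulated with 3.5 μg/mL PHA-L (final) for 48 h at 37° C. Supernatant cytokine was measured by HTRF, and IC50 was derived by four-parameter logistic fit.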

[3] = test system: IL-13; assay: Cytokine assay: IL-13 release from PHA-L stimulated human PBMCs; assay type: cell-based; details: read-out: IL13 IC50
How it was run: as §1

[4] = test system: IFNγ; assay: Cytokine assay: IFNγ release from PHA-L stimulated human PBMCs; assay type: cell-based
How it was run: as §1

Chain of PDE4B (aa 152-484, Uniprot ID Q07343) (Q07343 324-656): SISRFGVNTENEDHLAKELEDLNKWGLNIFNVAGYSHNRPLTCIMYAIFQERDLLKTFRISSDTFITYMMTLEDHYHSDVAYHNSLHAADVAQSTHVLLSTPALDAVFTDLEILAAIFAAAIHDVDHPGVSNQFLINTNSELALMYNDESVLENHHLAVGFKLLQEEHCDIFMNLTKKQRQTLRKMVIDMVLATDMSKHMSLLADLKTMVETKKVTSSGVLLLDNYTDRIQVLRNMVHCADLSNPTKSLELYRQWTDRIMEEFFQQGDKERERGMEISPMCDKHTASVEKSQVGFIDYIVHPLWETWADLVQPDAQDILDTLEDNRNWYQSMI

Structure (SMILES) | IC50 [1] [nM] | IC50 ([2]; Homo sapiens, PBMC) [nM] | IC50 ([3]; Homo sapiens, PBMC) [nM] | IC50 ([4]; Homo sapiens, PBMC) [nM] | IC50 [2] [nM] | IC50 [3] [nM] | IC50 [4] [nM]
CCOc1cc(-c2cncc(C3=CB(O)OC3)c2)ccc1OC [Example 229, 4-(5-(3-ethoxy-4-methoxyphenyl)pyridin-3-yl)-1,2-oxaborol-2(5H)-ol] | 2.64 | 195 | 2730 | 2.9 |  |  | 
CCCOc1cc(-c2nc(C3COB(O)C3)cc(C(F)(F)F)n2)ccc1OC (single isomer, unassigned) [Example 23, 4-(2-(4-methoxy-3-propoxyphenyl)-6-(trifluoromethyl)pyrimidin-4-yl)-1,2-oxaborolan-2-ol] | 0.97 | 0.61 | 132 | 0.85 |  |  | 
CCCOc1cc(-c2nc(OC)cc(C3COB(O)C3)n2)ccc1OC (centres unmarked) [Example 224, 4-(6-methoxy-2-(4-methoxy-3-propoxphenyl)pyrimidin-4-yl)-1,2-oxaborolan-2-ol] | 2.17 | 8.94 | 2490 | 8.12 |  |  | 
CCCOc1cc(-c2nc(C3COB(O)C3)cc(C(F)(F)F)n2)ccc1OC (centres unmarked) [Example 55, 4-(2-(4-methoxy-3-propoxyphenyl)-6-(trifluoromethyl)pyrimidin-4-yl)-1,2-oxaborolan-2-ol] | 2.21 |  |  |  | 3.94 | 576 | 2.27
CCCOc1cc(-c2nc(CO)cc(C3COB(O)C3)n2)ccc1OC (centres unmarked) [Example 57, 4-(6-(hydroxymethyl)-2-(4-methoxy-3-propoxyphenyl)pyrimidin-4-yl)-1,2-oxaborolan-2-ol] | 10.2 | 7.54 | 239 | 2.29 |  |  | 
COc1ccc(-c2cc(C3COB(O)C3)ccn2)cc1OC1CCCC1 (single isomer, unassigned; enantiomer 2) [Example 211, 4-(2-(3-(cyclopentyloxy)-4-methoxyphenyl)pyridin-4-yl)-1,2-oxaborolan-2-ol, enantiomer 2] | 2.95 | 27.8 | 1840 | 1.83 |  |  | 
CCCOc1cc(-c2nc(CC(=O)O)cc(C3COB(O)C3)n2)ccc1OC (centres unmarked) [Example 134, 2-(6-(2-hydroxy-1,2-oxaborolan-4-yl)-2-(4-methoxy-3-propoxyphenyl)pyrimidin-4-yl)acetic acid] | 7.46 | 1.79 | 1110 | 3.04 |  |  | 
CCCOc1cc(-c2cccc(C3(C)COB(O)C3)n2)ccc1OC (centres unmarked) [Example 29, 4-(6-(4-methoxy-3-propoxyphenyl)pyridin-2-yl)-4-methyl-1,2-oxaborolan-2-ol] | 10.5 | 9.51 | 3470 | 4.82 |  |  | 
CCCOc1cc(-c2cncc(C3=CB(O)OC3)c2)ccc1OC [Example 25, 4-(5-(4-methoxy-3-propoxyphenyl)pyridin-3-yl)-1,2-oxaborol-2(5H)-ol] | 2.4 | 67.8 | 2320 | 9.17 |  |  | 
COc1ccc(-c2cncc(C3COB(O)C3)c2)cc1OC1CC1 (single isomer, unassigned) [Example 7, 4-(5-(3-cyclopropoxy-4-methoxyphenyl)pyridin-3-yl)-1,2-oxaborolan-2-ol] | 0.97 |  |  |  | 7.76 | 289 | 0.71
CCCOc1nc(-c2cncc(C3COB(O)C3)c2)c(F)cc1OC (centres unmarked) [Example 48, 4-(3-fluoro-5-methoxy-6-propoxy-[2,3′-bipyridin]-5′-yl)-1,2-oxaborolan-2-ol] | 0.12 | 0.82 | 252 | 0.98 |  |  | 

Second part, the compound after the results:

IC50 [1] [nM] | IC50 ([2]; Homo sapiens, PBMC) [nM] | IC50 ([3]; Homo sapiens, PBMC) [nM] | IC50 ([4]; Homo sapiens, PBMC) [nM] | IC50 [2] [nM] | IC50 [3] [nM] | IC50 [4] [nM] | Structure (SMILES)
2.53 | 4.5 | 1040 | 2.04 |  |  |  | CCOc1cc(-c2cncc(C3COB(O)C3)c2C)c(F)cc1OC (single isomer, unassigned) [Example 142, 4-(5-(5-ethoxy-2-fluoro-4-methoxyphenyl)-4-methylpyridin-3-yl)-1,2-oxaborolan-2-ol]
3.63 | 2.85 | 1540 | 14.7 |  |  |  | CCOc1cc(-c2nc(C3COB(O)C3)cs2)ccc1OC (single isomer, unassigned; enantiomer 1) [Example 194, (−) 4-(2-(3-ethoxy-4-methoxyphenyl)thiazol-4-yl)-1,2-oxaborolan-2-ol, enantiomer 1]
2.04 | 1.08 | 988 | 0.9 |  |  |  | CCOc1cc(-c2cncc(C3COB(O)C3)c2C(F)F)ccc1OC (centres unmarked) [Example 138, 4-(4-(difluoromethyl)-5-(3-ethoxy-4-methoxyphenyl)pyridin-3-yl)-1,2-oxaborolan-2-ol]
1.26 | 3.63 | 265 | 1.87 |  |  |  | COc1ccc(-c2cncc(C3COB(O)C3)c2)cc1OCCCO (single isomer, unassigned) [Example 9, 4-(5-(3-(3-hydroxypropoxy)-4-methoxyphenyl)pyridin-3-yl)-1,2-oxaborolan-2-ol]
1.05 |  |  |  | 17.6 | 283 | 0.72 | COc1ccc(-c2cncc(C3COB(O)C3)c2)cc1OC(C)C (single isomer, unassigned) [Example 6, 4-(5-(3-isopropoxy-4-methoxyphenyl)pyridin-3-yl)-1,2-oxaborolan-2-ol]
2.96 | 2.56 | 1480 | 1.68 |  |  |  | CCOc1cc(-c2cc([C@@H]3COB(O)C3)cnc2C)ccc1OC (single isomer, unassigned) [Example 19]
0.64 |  |  |  | 0.84 | 159 | 1.35 | CCOc1cc(-c2cncc(C3COB(O)C3)c2C)ccc1OC (single isomer, unassigned) [Example 21, 4-(5-(3-ethoxy-4-methoxyphenyl)-4-methylpyridin-3-yl)-1,2-oxaborolan-2-ol]
0.95 | 3.35 | 701 | 2.24 |  |  |  | CCOc1cc(-c2cncc(C3COB(O)C3)c2C)c(F)cc1OC (centres unmarked) [Example 141, 4-(5-(5-ethoxy-2-fluoro-4-methoxyphenyl)-4-methylpyridin-3-yl)-1,2-oxaborolan-2-ol]
1.13 |  |  |  | 219 | 2800 | 2.67 | CCOc1ccc(-c2cncc(C3COB(O)C3)c2)cc1OCC (single isomer, unassigned) [Example 98, 4-(5-(3,4-diethoxyphenyl)pyridin-3-yl)-1,2-oxaborolan-2-ol]
0.97 |  |  |  | 5.98 | 166 | 4.89 | CCOc1cc(-c2cncc(C3COB(O)C3)c2)cc(Cl)c1OC (single isomer, unassigned) [Example 13, 4-(5-(3-chloro-5-ethoxy-4-methoxyphenyl)pyridin-3-yl)-1,2-oxaborolan-2-ol]
2.27 | 103 | 1900 | 3.29 |  |  |  | CCCOc1cc(-c2nccc(C3COB(O)C3)n2)ccc1OC (centres unmarked) [Example 212, 4-(2-(4-methoxy-3-propoxyphenyl)pyrimidin-4-yl)-1,2-oxaborolan-2-ol]
8.74 | 104 | 508 | 2.94 |  |  |  | CCOc1cc(-c2cccc(C3COB(O)C3)n2)ccc1OC (centres unmarked) [Example 233, 4-(6-(3-ethoxy-4-methoxyphenyl)pyridin-2-yl)-1,2-oxaborolan-2-ol]
